These results are taken from article PMC4106271 (Journal of Medicinal Chemistry, 2014).

Structures are written as SMILES. Like-named read-outs stand apart in the source and are kept apart here.

Test [1] addresses T1, α1β2γ2S GABAA receptors (Homo sapiens, UniProt P14867+P47870).
T1 construct: expressed in transfected cells; host or cells: Xenopus laevis oocytes injected with cRNA (pCMV cDNA templates)
Description: Two-microelectrode voltage clamp, IGABA modulation, α1β2γ2S. The test is classed as cell-based. The note with it: for activation at 100 µM: 100 μM compound, GABA EC3–7, Xenopus laevis oocytes, mean ± SEM. How it is done: Preparation of stage V–VI oocytes from X. laevis and synthesis of capped runoff poly(A) cRNA transcripts from linearized cDNA templates (pCMV vector) was performed as previously described.[49] […] Follicle membranes from isolated oocytes were enzymatically digested with 2 mg/mL collagenase (type 1A, Sigma–Aldrich, Vienna, Austria).
Selected oocytes were injected with 10–50 nL of DEPC-treated water (diethyl pyrocarbonate, Sigma, Vienna, Austria) containing the different GABAA cRNAs at a concentration of approximately 300–3000 pg·nL^–1·subunit^–1.
To ensure expression of the γ2S subunit in the case of α1/2/3/5β2/3γ2S receptors, cRNAs were mixed in a ratio of 1:1:10. […] The amount of cRNAs was determined by means of a NanoDrop ND-1000 (Kisker-Biotech, Steinfurt, Germany).
Oocytes were stored at +18 °C in modified ND96 solution (90 mM NaCl, 1 mM CaCl2, 1 mM KCl, 1 mM MgCl2·6H2O, and 5 mM HEPES [4-(2-hydroxyethyl)-1-piperazineethanesulfonic acid], pH 7.4, all from Sigma–Aldrich, Vienna, Austria).
Chloride currents through GABAA receptors (IGABA) were measured at room temperature (+21 ± 1 °C) by means of a two-microelectrode voltage clamp technique making use of a Turbo TEC-05X amplifier (npi electronic, Tamm, Germany). IGABA were elicited at a holding potential of –70 mV. Data acquisition was carried out by means of an Axon Digidata 1322A interface using pCLAMP v.10 (Molecular Devices, Sunnyvale, CA). The modified ND96 solution was used as bath solution.
GABA and the studied derivatives were applied by means of the ScreeningTool (npi electronic, Tamm, Germany) fast perfusion system as described previously.[50] To elicit IGABA, the chamber was perfused with 120 μL of GABA- or compound-containing solution at a volume rate of 300 μL/s.[34] Care was taken to account for possible slow recovery from increasing levels of desensitization in the presence of high drug concentrations. The duration of washout periods was therefore extended from 1.5 min (<10 μM compounds) to 30 min (≥10 μM compounds). Oocytes with maximal current amplitudes >3 μA were discarded to exclude voltage clamp errors.
Stimulation of chloride currents by modulators of the GABAA receptor was measured at a GABA concentration eliciting between 3% and 7% of the maximal current amplitude (EC3–7). The GABA EC3–7 was determined for each oocyte individually. Enhancement of the chloride current was defined as (IGABA+compd/IGABA) – 1, where IGABA+compd is the current response in the presence of a given compound and IGABA is the control GABA current. IGABA-max reflects the maximal IGABA enhancement. Concentration–response curves were generated and the data were fitted by nonlinear regression analysis using Origin Software (OriginLab Corp.). Data were fitted to the equation 1/(1 + (EC50/[compound])^nH), where nH is the Hill coefficient. […] Statistical significance was calculated by paired Student t-test with a confidence interval of <0.05.

The target in test [2] is T1, α1β2γ2S GABAA receptors. Conditions: cited from earlier work.

T1 sequence (P14867 28-456): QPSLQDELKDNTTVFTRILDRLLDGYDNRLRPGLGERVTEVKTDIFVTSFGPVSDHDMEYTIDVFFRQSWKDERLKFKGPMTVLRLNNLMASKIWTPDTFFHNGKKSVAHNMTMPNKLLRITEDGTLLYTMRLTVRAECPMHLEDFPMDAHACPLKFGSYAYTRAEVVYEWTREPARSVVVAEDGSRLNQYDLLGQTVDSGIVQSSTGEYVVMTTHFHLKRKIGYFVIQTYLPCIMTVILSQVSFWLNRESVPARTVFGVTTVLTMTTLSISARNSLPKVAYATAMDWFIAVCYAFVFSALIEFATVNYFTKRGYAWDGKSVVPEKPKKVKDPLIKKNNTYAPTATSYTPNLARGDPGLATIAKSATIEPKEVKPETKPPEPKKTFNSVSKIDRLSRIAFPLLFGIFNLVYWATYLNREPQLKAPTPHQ
T1 sequence (P47870 26-512): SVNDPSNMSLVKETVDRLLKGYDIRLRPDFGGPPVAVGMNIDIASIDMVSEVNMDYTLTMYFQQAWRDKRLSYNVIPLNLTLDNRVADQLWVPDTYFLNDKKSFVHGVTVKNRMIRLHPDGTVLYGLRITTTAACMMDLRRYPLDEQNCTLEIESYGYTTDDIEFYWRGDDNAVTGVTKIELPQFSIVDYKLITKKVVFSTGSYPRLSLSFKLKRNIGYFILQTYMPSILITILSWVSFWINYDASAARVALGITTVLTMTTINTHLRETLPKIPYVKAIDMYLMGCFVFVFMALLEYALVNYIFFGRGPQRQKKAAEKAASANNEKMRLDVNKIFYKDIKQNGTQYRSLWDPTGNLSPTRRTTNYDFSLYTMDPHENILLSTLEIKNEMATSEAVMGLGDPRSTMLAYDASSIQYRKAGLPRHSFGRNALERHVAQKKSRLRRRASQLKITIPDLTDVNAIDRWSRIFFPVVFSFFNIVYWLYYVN
T1 sequence (P18507 40-467 isoform P18507-1 partner limits assumed): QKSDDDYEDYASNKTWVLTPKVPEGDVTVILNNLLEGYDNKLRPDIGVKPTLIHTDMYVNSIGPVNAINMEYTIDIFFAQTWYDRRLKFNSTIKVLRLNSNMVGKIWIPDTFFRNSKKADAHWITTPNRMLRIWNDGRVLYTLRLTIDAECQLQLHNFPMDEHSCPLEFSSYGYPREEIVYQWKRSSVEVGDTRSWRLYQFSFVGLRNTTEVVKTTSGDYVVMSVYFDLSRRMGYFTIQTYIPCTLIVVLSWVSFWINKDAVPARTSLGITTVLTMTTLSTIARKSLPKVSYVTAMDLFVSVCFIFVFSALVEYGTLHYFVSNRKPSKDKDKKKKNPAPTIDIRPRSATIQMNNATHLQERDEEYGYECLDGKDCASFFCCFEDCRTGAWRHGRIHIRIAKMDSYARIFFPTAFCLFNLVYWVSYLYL

As for `CCCCN(CCCC)C(=O)c1cccc2cc3c(cc12)OCO3` [Compound 73], the nH in test [1] (Hill coefficient of concentration–response curve) is 2.7 ± 0.2. The EC50 in test [1] (IGABA enhancement, GABA EC3–7, Xenopus oocytes) worked out at 31.8 ± 5.3 µM.
Molecule `CC(C)CN(CC(C)C)C(=O)c1cccc2cc3c(cc12)OCO3` [Compound 74] yielded an activation at 100 µM in test [1] of 60 ± 17%.
As for `O=C(c1ccc2cc3c(cc2c1)OCO3)N1CCCCC1` [Compound 75], the activation at 100 µM in test [1] was 58 ± 29%.
With `O=C(/C=C/C=C/c1ccc2c(c1)OCO2)N1CCCCC1` [piperine, 1-piperoylpiperidine], the “potentiation of IGABA” value in test [2] (100 μM) was 226% ± 26%. For the same molecule, in test [2] (Hill coefficient), the nH is reported as 1.5 ± 0.2.
